Patent publication US20160058743A1, “METHODS FOR TREATING SENSORIMOTOR IMPAIRMENTS ASSOCIATED WITH CERTAIN TYPES OF STROKE USING AMINOPYRIDINES” (ACORDA THERAPEUTICS, INC., priority 2013, published 2016)
“Also recorded” adds a separate entry of the source. Read-outs that look alike come from different tables or passages of the source.

Tests used:
Assay type in all cases: in vivo, Sprague Dawley rats
[1] = 4-aminopyridine plasma levels 90 min after dosing (LC-MS/MS); settings: Sprague Dawley, rat, oral, read-out: Mean (SE) 4-aminopyridine Plasma Level
Protocol: Blood sampling: After the on-drug behavior assessments were completed (Days 30, 32, 44, 46, 58 and 60), approximately 300 microliter blood sample was taken exactly 90 min after dosing to assess 4-AP plasma levels at that time. Blood was collected from the saphenous vein of each animal. Blood was collected into K3 EDTA tubes and centrifuged at 10,000 rpm for 10 minutes at 4 degrees C. Plasma was obtained, frozen and stored at approximately −80 C. Samples were analyzed for 4-AP levels. 4-AP concentration was determined using a validated liquid chromatography with tandem mass spectrometric detection method in positive electrospray mode.
Treatment groups: Animals had MCAO surgery and were allowed to recover for 56 days. Animals were then randomized into 2 groups based on their baseline behavior. Par oral dosing b.i.d. was initiated in the evening of Day 56 after MCAO. Behavior testing during dosing periods was started 1 hour after dosing. Blood was collected via saphenous vein just prior to and during treatment phases just after behavioral testing (90 minutes post dosing). All dosing was via gastric gavage, volume not to exceed 2 mL/kg.
Blood sampling: 300 microliter blood sample was collected from the saphenous vein of each animal on Day 56 just prior to the first dose and then exactly 90 min after the 6 dose at each dose level. Blood was collected, centrifuged, stored and analyzed as described in Example 2, above.

[2] = tested on: rats with middle cerebral artery occlusion (MCAO); assay: Hindlimb placing test after MCAO
[3] = tested on: rats with middle cerebral artery occlusion (MCAO); assay: Hindlimb placing test after MCAO; remark: listed apart in the source
From the text: In particular, the MCAO model in Sprague Dawley rats that was utilized in the experiments presented below mimics the conditions in human ischemic stroke. In this model, focal cerebral infarcts were made by permanent occlusion of the proximal right middle cerebral artery (MCA) using a modification of the method of Tamura et al. (No To Shinkei 1986; 38:747-51). Briefly, the temporalis muscle was bisected and reflected through an incision made midway between the eye and the ear canal. The proximal MCA was exposed through a subtemporal craniectomy without removing the zygomatic arch and without transecting the facial nerve.
In this experiment, Sprague Dawley rats were anesthetized, subjected to a surgery resulting in middle cerebral artery occlusion (MCAO), treated with and without 4-aminopyridine and behavioral assessments were performed as described below. Treatment was initiated at 4 weeks after stroke.
Dosing and Treatment: Rats were treated in accordance with the dosing schedule shown in Tables 2A, 2B, 3 and FIG. 2, with each Phase being a two week period of time. A solution of 4-AP was used in this experiment. Dosing was started at 4 weeks after ischemic event. 4-aminopyridine was dissolved in water for injection (WFI, Cellgro) and sterile filtered. Final concentrations of 0.315 mg/mL or 1.0 mg/mL of 4-aminopyridine were delivered at 2 mL/kg by gastric gavage, resulting in final doses of 0.63 mg/kg and 2 mg/kg respectively. Vehicle control treatment was WFI delivered at 2 mL/kg by gastric gavage. This study was divided into three treatment phases (1-3) with each randomized cohort of animals receiving a different dose level during each of the treatment phases. Starting on day 30 after MCAO (Day 30, start of phase 1), the animals received gavage dosing of solutions (2 mL/kg) approximately 12 hours apart, for a total of five doses. The same schedule was repeated with different treatment on Day 44 and Day 58 for phase 2 and 3 of the study, respectively. Animals were not treated during the 10 days between phases (washout period).
Treatment groups: Dosing was started 4 weeks after MCAO surgery. During these 4 weeks, weekly behavioral assessments, as defined below, were performed. Two dose levels of 4-AP plus vehicle control were assessed, with treatment starting at 4 weeks after ischemic event. All dosing was via gastric gavage, volume not to exceed 2 mL/kg. Animals were given the first dose and behavioral assessments were performed starting 60 minutes after dosing. Animals then received the second dose that day at the appropriate time and b.i.d (preferably every 12 hours) thereafter for 2 more days (3 total days of dosing, 5 total doses). One hour after the 5th dose, animals were subjected to behavioral assessments as defined below. Following the final behavioral assessment, drug was withdrawn for 10 or 11 days, behavior was re-assessed, and then animals were re-challenged with a cross-over treatment (Phase 2 of Table 2B) as described in Tables 2A, 2B and 3, followed by the same behavioral testing and dosing regimen. This cross-over was repeated one more time as well (Phase 3 of Table 2B) (see FIG. 2).
Behavioral test details: Behavioral evaluations were done by evaluators blinded to treatment assignment. Blinded assessments of sensorimotor function were performed just prior to MCAO surgery, 24 hours after MCAO surgery and weekly thereafter until the first phase of dosing using limb placing and body swing behavioral tests. As described above, behavioral assessments were timed exactly with dosing times. Animals were tested one hour after the 1st and 5th doses of each phase (i.e., Days 30 and 32 of the first phase, Days 44 and 46 of the second phase; and Days 58 and 60 of the third phase); animals were also tested during the washout periods on Days 42 and 56. Animals were given the first dose, behavioral assessments were performed starting 60 minutes later, and blood was collected 90 minutes after dosing. […]

Q: With Nc1ccncc1 [4-AP, 4-aminopyridine] as the compound, how does the concentration at 90 min ([1]; 0.5 mg/kg, Example 17 dose escalation, Dose Level 0.5 mg/kg b.i.d. p.o., 90 min after 6th dose) read?
A: 68.3 ng/mL

Q: And the concentration at 90 min ([1]; 0.63 mg/kg, Group 1, Phase 2, Low 0.63 mg/kg b.i.d. p.o., 90 min after dosing)?
A: 64 ng/mL

Q: What about the concentration at 90 min ([1]; 0.63 mg/kg, Group 2, Phase 1, Low 0.63 mg/kg b.i.d. p.o., 90 min after dosing) of the same compound?
A: 78.1 ng/mL

Q: And the concentration at 90 min ([1]; 0.63 mg/kg, Group 3, Phase 3, Low 0.63 mg/kg b.i.d. p.o., 90 min after dosing)?
A: 61.8 ng/mL

Q: And the concentration at 90 min ([1]; 1 mg/kg, Example 17 dose escalation, Dose Level 1.0 mg/kg b.i.d. p.o., 90 min after 6th dose)?
A: 114 ng/mL

Q: And the concentration at 90 min ([1]; 2 mg/kg, Example 17 dose escalation, Dose Level 2.0 mg/kg b.i.d. p.o., 90 min after 6th dose)?
A: 185 ng/mL

Q: What about the concentration at 90 min ([1]; 2 mg/kg, Group 1, Phase 1, High 2.0 mg/kg b.i.d. p.o., 90 min after dosing) of the same compound?
A: 142 ng/mL

Q: What about the concentration at 90 min ([1]; 2 mg/kg, Group 2, Phase 3, High 2.0 mg/kg b.i.d. p.o., 90 min after dosing) of the same compound?
A: 144 ng/mL

Q: What about the concentration at 90 min ([1]; 2 mg/kg, Group 3, Phase 2, High 2.0 mg/kg b.i.d. p.o., 90 min after dosing) of the same compound?
A: 129 ng/mL

Q: And the “Hind limb placing score compared to vehicle” value ([2]; Example 17, 0.5 mg/kg b.i.d. p.o., Day 59 post-MCAO)?
A: improved with the low dose but did not reach significance

Q: And the “Hind limb test compared to vehicle” value ([2]; Example 17, 1 mg/kg b.i.d. p.o., Day 62 post-MCAO, p<0.05)?
A: measureable improvement

Q: And the “Hind limb function compared to vehicle” value ([2]; Example 17, 2 mg/kg b.i.d. p.o., Day 65 post-MCAO, p<0.001)?
A: significant improvements

Q: What about the “Effect on hindlimb function (hindlimb placing test)” value ([3]; Example 2, low (0.63 mg/kg) or high (2 mg/kg) dose b.i.d. p.o., started 4 weeks post MCAO, dose-responsive, reversible) of the same compound?
A: effective to improve hindlimb function; also recorded: significant improvement

Q: What about the “Hindlimb Placing Total Score” value ([3]; Group 1, D 32 post-MCAO, High 4-AP 2.0 mg/kg b.i.d. p.o., 1 h after 5th dose, group Mean, N=15, 0=normal, 6=maximally impaired) of the same compound?
A: 0.97

Q: What about the “Hindlimb Placing Total Score” value ([3]; Group 2 mean, D 58 after MCAO, phase 3, high dose (sequence lvh, b238, inferred)) of the same compound?
A: 0.83

Q: What about the “Hindlimb Placing Total Score” value ([3]; Group 2 mean, D 60 after MCAO, phase 3, high dose (sequence lvh, b238, inferred)) of the same compound?
A: 0.23

Q: What about the “Hindlimb Placing Total Score” value ([3]; Group 3 mean, D 44 after MCAO, phase 2) of the same compound?
A: 0.90

Q: And the “Hindlimb Placing Total Score” value ([3]; Group 3 mean, D 46 after MCAO, phase 2)?
A: 0.30
